These results are taken from patent publication US6974816B2, “Combination for the treatment of endothelial damage” (Licentia Ltd., priority 2001, dated 2005).

Where two headings read alike, the source gives them in different places.

The subject of data set [1] is left anterior descending coronary artery injured by overdilatation and denudation. The note with it: after PTCA, versus controls without RPR101511A; cited from earlier work.
In data set [2] the test system is intimal and medial smooth muscle cells. Briefly: BrdU labelling of dividing smooth muscle cells. In kind it is in vivo, New Zealand White rabbits. The note with it: 6-week endpoint; mean ± SEM. As to the method:
(§1) Three hours before euthanasia, animals receive an i.v. injection of 50 mg 5-bromo-2′-deoxyuridine (BrdU; Zymed Laboratories, San Francisco, Calif., USA) dissolved in 40% ethanol. After euthanasia, the transferred vessel segment is removed, flushed gently with saline, and divided into 4 parts of equal length. The proximal part is snap-frozen in liquid nitrogen and stored at −70° C. The next part is immersion-fixed in 4% paraformaldehyde/15% sucrose (pH 7.4) for 4 h, rinsed in 15% sucrose (pH 7.4) and embedded in paraffin. The 2nd most distal part is fixed in 70% ethanol overnight and embedded in paraffin. The distal part is fixed in […]/PBS (pH 7.4) for 10 minutes, rinsed in PBS, embedded in OCT compound (Miles) and stored at −70° C. The distal segments from 3 week end-point animals are stained for β-galactosidase activity in X-Gal staining solution at +37° C. for 16 h, followed by fixation similar to that for the second segment. Paraffin sections are used for the detection of endothelium (CD31, DAKO, 1:50), smooth muscle cells (HHF, DAKO, 1:50), macrophages (RAM-11, DAKO, 1:50), and BrdU positive cells (Bu20a, DAKO, 1:50). Controls for immunostainings include incubations with class- and species-matched immunoglobulins and omission of primary antibodies. Morphometry is performed with Leica Q5001lW software with a stereomicroscope connected to a digital camera (Leica).

Data set [3] has as its system CD31-positive cells (endothelium) of the transfected vessel segment. Put plainly: Luminal endothelial cell coverage (CD31-positive cells) in transverse vessel sections. In kind it is in vivo, New Zealand White rabbits. As to the method: Animals from the 8 groups are also analyzed with regard to luminal endothelial cell coverage from transverse vessel sections. This variable is determined by analysis of the percentage of the luminal surface that is covered by CD31-positive cells (CD31 is an endothelium-specific antibody from DAKO).
To investigate the mechanism underlying the observed beneficial effect of the combination therapy, the extent of endothelialization and the number of smooth muscle cells at the transfected vessel segment are analyzed (see Table 1). At the three-week time point, no difference in endothelial cell coverage is observed between the groups, although a trend towards an increased endothelial cell coverage in the combination group is seen (P=0.088). However, at the six-week time point, both groups that have received VEGF-C gene transfer display an increase in endotheilialization as compared to the control group. […] As shown in Table 4 (see below), the cell number is reduced by 52% (P<0.05) in the combination group as compared to control animal.
Three hours before euthanasia, animals receive an i.v. injection of 50 mg 5-bromo-2′-deoxyuridine (BrdU; Zymed Laboratories, San Francisco, Calif., USA) dissolved in 40% ethanol. After euthanasia, the transferred vessel segment is removed, flushed gently with saline, and divided into 4 parts of equal length. […]

For data set [4] the following is noted: for Plasma STI571 concentration, day 3 peak: 10 mg/kg/d oral in two daily doses; for Plasma STI571 concentration, day 3 peak / Plasma STI571 concentration, day 10 peak / Plasma STI571 concentration, day 21 peak: 2 h after drug delivery; for Plasma STI571 concentration, day 42: 3 weeks after last dose; for Plasma STI571 concentration, day 3 nadir / Plasma STI571 concentration, day 10 nadir / Plasma STI571 concentration, day 21 nadir: immediately before next administration. As to the method:
The drug, or control (=sterile water) is administered with an oro-gastric sond on trained, unsedated animals 1 h before the gene transfer and is repeated every 12 h thereafter for the following three weeks.
Blood sampling, […] with catheterizations or euthanasia, is performed under slight Fluanisone/Fentanyl sedation. […] The specimen is stored in heparinized tubes shielded from light and plasma is isolated by centrifugation within 2 h and stored at −70° C. STI concentration is determined by high-performance liquid chromatography
For HPLC, plasma proteins are precipitated by the addition of an equal volume of acetonitrile. After 20 to 30 min at room temperature, the precipitated proteins are removed by centrifugation (10,000 g, 5 min) and the supernatants are analyzed by reversed-phase HPLC.
HPLC is performed on Merck-Hitachi LaChrom® equipment. 100 μl of the supernatants are injected onto a Nucleosil® 100-5 C18 column (C-18 modified silica Gel, Macherey & Nagel) protected by a 20 mm guard column of the same material. The sample is eluted with a gradient of acetonitrile in water at a flow rate of 1 ml/min; after 5 min at 10% v/v acetonitrile, the concentration of acetonitrile is increased to 75% v/v over a period of 15 min. The column is prepared for the next sample by washing for 5 min with 75% v/v acetonitrile, returning to 10% acetonitrile over 5 min and 5 min reequilibration. The mobile phase contains 0.05% v/v trifluoroacetic acid. The eluent is monitored using UV absorbance at a wavelength of 265 nm. […] The concentration of the compound is determined by the external standard method using peak heights. […] The calibration standards are processed as above.

Data set [5] is described as follows: Complete blood count (hematological parameters). The note with it: 3-week endpoint; mean ± SEM.
Source text: (§2) The cohort groups are also characterized with regard to animal weights, weight changes, extent of balloon injury (IEL damage), blood lipid profiles and basic hematologic parameters.
(§3) Blood samples are drawn for complete blood count at the time of euthanasia from randomly selected animals (n=3/group) in the 3-week endpoint cohort.
In the next data set the test system is arterial intima. The note with it: after re-injury of the arterial intima; cited from earlier work.
The test system of data set [6] is intimal and medial smooth muscle cells. Briefly: Intimal and medial smooth muscle cell number. The data set is classed as in vivo, New Zealand White rabbits. The note with it: 6-week endpoint; mean ± SEM. As to the method: as §1
The conditions of data set [7]: rabbit, in vivo.
Source text: as §2
For data set [8] the following is noted: rabbit, in vivo. The source holds these as a separate data set.
Source text: as §2, §3

Regarding `COc1cc2ncc(-c3ccsc3)nc2cc1OC.Cl` [RPR101511A, 6,7-di-methoxy-2-thiophen-3-yl-quinoxaline hydrochloride], in data set [1], the total intima/media ratio entry is on record as “significant decrease”.

In the case of `Cc1ccc(NC(=O)c2ccc(CN3CCN(C)CC3)cc2)cc1Nc1nccc(-c2cccnc2)n1` [STI571, N-{5-[4-(4-methyl-piperazino-methyl)-benzoylamido]-2-methylphenyl}-4-(3-pyridyl)-2-pyrimidine-amine], in data set [2], the “BrdU positive SMC (%), intima” value amounted to 0.57 ± 0.13% and the “BrdU positive SMC (%), media” value came out at 0.39 ± 0.08%. The “CD31 positive cell coverage (% of luminal circumference), mean” value in data set [3] (3-week endpoint) is 33.7 % of luminal circumference. The “CD31 positive cell coverage (% of luminal circumference), mean” value in data set [3] (6-week endpoint) was 60.2 % of luminal circumference. In data set [4] (LacZ transfected animals), the “Plasma STI571 concentration, day 3 peak” value is 10.27 ± 1.28 µM; the “Plasma STI571 concentration, day 42” value is 0.04 ± 0.01 µM; the “Plasma STI571 concentration, day 10 peak” value stood at 16.63 ± 1.99 µM; the “Plasma STI571 concentration, day 21 peak” value is 13.18 ± 1.65 µM. For the same molecule, in [4] (LacZ transfected animals), the “Plasma STI571 concentration, day 3 nadir” value turned out to be 3.57 ± 0.74 µM; the “Plasma STI571 concentration, day 10 nadir” value was determined as 5.16 ± 1.89 µM; the “Plasma STI571 concentration, day 21 nadir” value came out at 3.86 ± 1.02 µM. In data set [4] (VEGF-C transfected animals), the “Plasma STI571 concentration, day 3 peak” value worked out at 11.08 ± 1.10 µM; the “Plasma STI571 concentration, day 42” value is 0.05 ± 0.01 µM; the “Plasma STI571 concentration, day 10 peak” value amounted to 14.26 ± 1.26 µM; the “Plasma STI571 concentration, day 21 peak” value amounted to 13.58 ± 1.95 µM. In data set [4] (VEGF-C transfected animals), the “Plasma STI571 concentration, day 3 nadir” value came out at 3.11 ± 1.13 µM; the “Plasma STI571 concentration, day 10 nadir” value was determined as 2.41 ± 0.43 µM; the “Plasma STI571 concentration, day 21 nadir” value is 2.95 ± 0.90 µM. Besides, in [5], the “Hb” value was 103 ± 3.6 g/L, the “RBC count (× 10^12/l)” value is on record as 4.9 ± 0.2 × 10^12/l and the “WBC count (× 10^9/l)” value is on record as 4.6 ± 0.6 × 10^9/l. Also, the “smooth muscle proliferation and lesion formation” value with arterial intima was “inhibit smooth muscle proliferation and leasion formation”. Besides, in [6], the “Number of SMC, intima” value is listed as 1471 ± 287 and the “Number of SMC, media” value was 2403 ± 381. For the same molecule, in data set [7], the “weight” value amounted to 2462 ± 90 g. Moreover, in data set [8], the “Bands (%)” value is 0 ± 0%, the “Hct (%)” value is 31 ± 1.2%, the “MCH” value is listed as 21 ± 0.8 pg and the “MCV” value worked out at 64 ± 2.0 fL. Moreover, in data set [8], the “basophiles (%)” value was 0 ± 0%, the “eosinophiles (%)” value is listed as 3.4 ± 1.4%, the “lymphocytes (%)” value amounted to 67.4 ± 4.1% and the “monocytes (%)” value came to 2.4 ± 0.7%. For the same molecule, the “neutrophils (%)” value in data set [8] was found to be 26.8 ± 2.7%.
